Measured values as given in patent publication US5236955A, “Anti-fungal agent” (Washington University, priority 1992, dated 1993).
Read-outs that look alike come from different tables or passages of the source.

Tests used:
C. neoformans = test: Viability of C. neoformans (viable cells relative to EtOH control culture); format: cell-based, Cryptococcus neoformans; conditions: for log reduction at 300 µM: Cryptococcus neoformans
Protocol: Panel A, survey of the effects of several oxatetradecanoic acids on the growth of C. neoformans. A culture of C. neoformans was grown at 30° C. in SAB media to midlog phase (A600 ~0.5). A single dose of fatty acid was then added to subcultures (final concentration=300 μM). EtOH(0.1%) was used as a negative control. Amphotericin B (AmB) was added (final concentraton=55 μM) as a positive control. Aliquots were withdrawn from the subcultures 0, 0.5, 2, 4, 7, 21, and 24 h after these additions and then absorbance at 600 nm was measured. All assays were done in duplicate or triplicate. A representative test is shown. Panel B, survey of the effects of oxatetradecanoic acids, dioxatetradecanoic acids and oxatridecanoic acids on the viability of C. neoformans. Fatty acid analog was added to the cultures as in Panel A. Aliquots were withdrawn 0.5, 2, 4, 7 or 8, and 24 h later and plated on SAB-agar at various dilutions to determine the number of viable organisms/ml culture. All assays were done in duplicate. Data from a representative test are expressed as the ratio of viable cells in treated cultures relative to a control culture that received 0.1% EtOH. A positive control culture received a single dose of amphotericin B (55 μM); Panel C, dose-dependent reduction in the viability of C. neoformans after addition of 4-oxatetradecanoic acid (O4) to cultures during log-phase growth at 30° C. in SAB. A single dose of the analog was given at T=0 h in the amount indicated and aliquots of the culture were withdrawn at various times to determine the number of viable cells. All assays were done in triplicate. A representative test is shown.
(§1) Saccharomyces cerevisiae strain YM2061 (MATa ura3-52 his3Δ200 ade2-101 lys2-801 met LEU2::pRY181 can1; Flick and Johnston, Mol. Cell. Biol. 10, 4757-4769 (1990), Candida albicans strain B311 (obtained from the American Type Tissue Culture, Rockville, Md.), or Cryptococcus neoformans strain L210425 (a clinical isolate that is part of the permanent culture collection of the Mycology Laboratory, Barnes Hospital, St. Louis, Mo.) were grown overnight at 30 C. The S. cerevisiae strain was incubated in YPD medium (1% bacto-yeast extract, Gibco, Long Island, N.Y.), 2% bacto-peptone (Gibco), 2% dextrose). The C. albicans and C. neoformans strains were grown in Sabouraud's media (SAB; 2% (w/v) dextrose, 1% bacto-peptone). The following morning the cultures were diluted into fresh medium to the desired density at 600 nm (early log phase), and subsequently incubated in a rotary shaker at 30° C. until an A600 =0.5 (mid log phase) was achieved. The culture was then divided into 10 ml aliquots. A single 10 μl aliquot of a stock solution of fatty acid analog (prepared in various concentrations using absolute ethanol) was added to the culture so that the final concentration of the compound was 100-500 μM (T=0). Ten microliters of ethanol alone was added to one 10 ml culture which served as the negative control. Amphotericin B (AmB; in the form of Fungizone, Squibb) was added (final concentration=55 μM) to another culture which served as the positive control. At T=0 and 0.5-24 h after addition of fatty acid analog to the subcultures, an aliquot was removed for determining the density of the subculture at 600 nm. Cell viability was determined at each of these time points by (i) serially diluting the aliquot in 0.15M NaCl and counting cell number in a hemocytometer and (ii) plating 2-3 of the dilutions in triplicate onto plates of SAB/agar (C. albicans and C. neoformans) or YPD/agar (S. cerevisiae). These plates were subsequently incubated at 30° C. for 24-48 hr to allow for the growth of colonies. The data were expressed as the ratio of viable cells/ml in the fatty acid analog treated subculture to the number of viable cells/ml in the negative (ethanol) control culture.

C. albicans = test: Viability of C. albicans; format: cell-based; conditions: Candida albicans
Protocol: Oxatetradecanoic acids were added (final concentraton=25-500 μM) as a single dose to log phase cultures of C. alibcans grown in SAB at 30° C. (Panels A and B) and to log phase cultures of S. cerevisiae grown in YPD at 30° C. (Panels C and D). The results were compared to the number of viable organisms present in cultures treated with 0.1% EtOH alone. […] A single does of alphotericin B (final concentration=55 μM) was added to parallel cultures which served as positive controls. Assays were done in duplicate. Representative tests are shown.
as §1

CCCCCCCCCCOCCC(=O)O [O4, 4-oxatetradecanoic acid]
time needed to produce the decrease in viable cells (C. neoformans; 300 μM single dose): ≤ 1 h | fungicidal / fungistatic effect on C. neoformans (C. neoformans; 300 μM single dose, screening assay): fungicidal | log reduction at 300 µM (C. neoformans; 300 μM single dose, relative to 0.1% EtOH control, read-out: decrease in viable cells (converted)): 4 | log reduction at 300 µM (C. neoformans; 300 μM, between 1 and 7 h after treatment, read-out: further reductions in viable cell number): < 1 | cell number after single dose (C. neoformans; between 8 and 24 hr after single dose): gradual increase in cell number | dose dependence of fungicidal activity (C. neoformans; four doses, 100-300 μM): progressive reduction of viable cell number | log reduction at 300 µM (C. albicans; 300 μM, 2 hr after addition, read-out: reductions in the number of viable C. albicans): < 0.699 | log reduction at 500 µM (C. albicans; 500 μM, read-out: reduction in the number of viable organisms (C. albicans)): 1 to 2
